One assay deals with LRRK2 (Homo sapiens, UniProt Q5S007). In words: Kinase HotSpot service (Reaction Biology Corporation), LRRK2. Type of assay: biochemical. On the set-up: purchased DiscoverX Corp. (ScanMAX Kinase analysis panel, service). Particulars: ATP 10 uM, read-out: LRRK2 IC50 (values indicated by *). On the procedure:
(§1) The inhibitory activities of the compounds were measured at a 3-fold concentration gradient starting from a maximum compound concentration of […], and the values measured using the Kinase HotSpot service (Reaction Biology Corporation) are indicated by an asterisk (*).
(§2) All the experimental methods were performed as provided by the Kinase HotSpot Customer Protocol (http://www.reactionbiology.com//Kinase_Assay_Protocol).

Another assay concerns MDA-MB-468 cell line. In words: Inhibition of proliferation of MDA-MB-468 cancer cells (Cell Titer-Glo). To be noted: Homo sapiens, MDA-MB-468, 72 hours. Type of assay: cell-based. Summed up:
(§3)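 Cells seeded at 2,000/well and exposed 72 h to 11 concentrations of compound (3-fold dilutions, final 10.000000 down to 0.000169 μM) in DMEM or RPMI. Viability read by Cell Titer-Glo luminescence after 10 min at room temperature; GI50 calculated from luminescence.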

Another assay deals with T1, CLK1 (Homo sapiens, UniProt P49759).
T1 construct: purchased DiscoverX Corp. (ScanMAX Kinase analysis panel, service)
Briefly: Kinase HotSpot service (Reaction Biology Corporation), CLK1. Type of assay: biochemical. Particulars: ATP 10 uM, read-out: CLK1 IC50 (values indicated by *). How it is done:
as §1, §2

Another assay has as its system MDA-MB-231 cell line. In words: Inhibition of proliferation of MDA-MB-231 cancer cells (Cell Titer-Glo). The format is cell-based. To be noted: Homo sapiens, 72 hours. Summed up:
as §3
Background: ATP-based viability assays read luminescence as a measure of living cells.

The target in assay [1] is T2, LRRK2 (G2019S) (Homo sapiens, UniProt Q5S007, G2019S). In words: LRRK2 G2019S enzyme inhibition, ADP-Glo kinase assay. The format is biochemical. Further details: purchased SignalChem L10-12GG. To be noted: ATP 25 μM. Summed up:
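Purified human LRRK2 G2019S (16 ng) with 25 μM ATP and 0.2 μg substrate, 2 h at 25° C. in Tris-HCl pH 7.4, MgCl2, BSA, DTT buffer; compounds at 12 final concentrations, 50 μM down to 0.000001024 μM. ADP-Glo luminescence versus solvent control gave IC50.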
Target sequence in this assay (Q5S007 970-2527 G2019S limits assumed): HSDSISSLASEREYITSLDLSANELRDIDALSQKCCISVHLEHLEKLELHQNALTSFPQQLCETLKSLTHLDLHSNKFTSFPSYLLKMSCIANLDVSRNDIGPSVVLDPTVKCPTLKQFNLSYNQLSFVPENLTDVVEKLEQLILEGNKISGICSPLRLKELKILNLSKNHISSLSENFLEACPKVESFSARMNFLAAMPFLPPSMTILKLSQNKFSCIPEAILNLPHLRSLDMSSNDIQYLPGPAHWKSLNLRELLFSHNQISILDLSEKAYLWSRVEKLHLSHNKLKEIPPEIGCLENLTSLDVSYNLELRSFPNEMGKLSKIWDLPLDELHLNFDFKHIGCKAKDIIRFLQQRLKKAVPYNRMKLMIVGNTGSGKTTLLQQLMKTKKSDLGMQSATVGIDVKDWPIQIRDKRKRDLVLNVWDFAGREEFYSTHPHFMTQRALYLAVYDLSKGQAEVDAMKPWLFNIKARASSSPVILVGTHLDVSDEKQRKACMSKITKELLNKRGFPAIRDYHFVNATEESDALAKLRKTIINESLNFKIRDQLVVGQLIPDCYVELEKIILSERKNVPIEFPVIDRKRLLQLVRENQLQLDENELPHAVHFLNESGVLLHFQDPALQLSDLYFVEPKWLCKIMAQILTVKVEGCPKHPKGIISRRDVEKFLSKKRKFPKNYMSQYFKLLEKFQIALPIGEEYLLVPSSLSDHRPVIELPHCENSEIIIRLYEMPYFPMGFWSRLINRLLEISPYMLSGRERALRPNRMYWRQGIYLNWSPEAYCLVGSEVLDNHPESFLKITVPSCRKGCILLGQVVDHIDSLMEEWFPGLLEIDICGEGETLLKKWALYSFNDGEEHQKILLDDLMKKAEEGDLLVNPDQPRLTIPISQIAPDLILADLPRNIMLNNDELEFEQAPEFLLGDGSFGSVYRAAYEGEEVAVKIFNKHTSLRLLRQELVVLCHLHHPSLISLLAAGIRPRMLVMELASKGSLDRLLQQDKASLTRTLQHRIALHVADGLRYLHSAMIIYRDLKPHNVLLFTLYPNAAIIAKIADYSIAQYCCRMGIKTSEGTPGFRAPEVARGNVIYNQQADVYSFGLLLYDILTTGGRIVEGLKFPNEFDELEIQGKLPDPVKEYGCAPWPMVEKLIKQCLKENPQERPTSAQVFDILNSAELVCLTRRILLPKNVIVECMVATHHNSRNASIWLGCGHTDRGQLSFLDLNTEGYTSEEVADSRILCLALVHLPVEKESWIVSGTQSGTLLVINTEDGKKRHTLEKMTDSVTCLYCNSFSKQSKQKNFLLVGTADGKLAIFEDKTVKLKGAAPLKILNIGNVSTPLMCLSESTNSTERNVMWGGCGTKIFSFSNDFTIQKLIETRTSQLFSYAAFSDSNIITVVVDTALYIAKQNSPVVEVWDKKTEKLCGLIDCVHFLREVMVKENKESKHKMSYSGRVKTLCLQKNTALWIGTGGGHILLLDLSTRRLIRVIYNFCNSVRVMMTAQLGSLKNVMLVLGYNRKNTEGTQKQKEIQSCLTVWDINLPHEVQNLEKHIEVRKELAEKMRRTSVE

A further assay deals with DYRK1 (Homo sapiens, UniProt Q13627). In words: Kinase HotSpot service (Reaction Biology Corporation), DYRK1. Type of assay: biochemical. Particulars: ATP 10 uM, read-out: DYRK1 IC50 (values indicated by *). On the procedure: as §1, §2
Assay [2] concerns the target T2, LRRK2 (G2019S). Briefly: Kinase HotSpot service (Reaction Biology Corporation), LRRK2 (G2019S). Type of assay: biochemical. On the set-up: purchased DiscoverX Corp. (ScanMAX Kinase analysis panel, service). Particulars: ATP 10 uM, read-out: LRRK2 (G2019S) IC50 (values indicated by *). How it is done: as §1, §2
Target sequence in this assay (Q5S007 whole entry G2019S): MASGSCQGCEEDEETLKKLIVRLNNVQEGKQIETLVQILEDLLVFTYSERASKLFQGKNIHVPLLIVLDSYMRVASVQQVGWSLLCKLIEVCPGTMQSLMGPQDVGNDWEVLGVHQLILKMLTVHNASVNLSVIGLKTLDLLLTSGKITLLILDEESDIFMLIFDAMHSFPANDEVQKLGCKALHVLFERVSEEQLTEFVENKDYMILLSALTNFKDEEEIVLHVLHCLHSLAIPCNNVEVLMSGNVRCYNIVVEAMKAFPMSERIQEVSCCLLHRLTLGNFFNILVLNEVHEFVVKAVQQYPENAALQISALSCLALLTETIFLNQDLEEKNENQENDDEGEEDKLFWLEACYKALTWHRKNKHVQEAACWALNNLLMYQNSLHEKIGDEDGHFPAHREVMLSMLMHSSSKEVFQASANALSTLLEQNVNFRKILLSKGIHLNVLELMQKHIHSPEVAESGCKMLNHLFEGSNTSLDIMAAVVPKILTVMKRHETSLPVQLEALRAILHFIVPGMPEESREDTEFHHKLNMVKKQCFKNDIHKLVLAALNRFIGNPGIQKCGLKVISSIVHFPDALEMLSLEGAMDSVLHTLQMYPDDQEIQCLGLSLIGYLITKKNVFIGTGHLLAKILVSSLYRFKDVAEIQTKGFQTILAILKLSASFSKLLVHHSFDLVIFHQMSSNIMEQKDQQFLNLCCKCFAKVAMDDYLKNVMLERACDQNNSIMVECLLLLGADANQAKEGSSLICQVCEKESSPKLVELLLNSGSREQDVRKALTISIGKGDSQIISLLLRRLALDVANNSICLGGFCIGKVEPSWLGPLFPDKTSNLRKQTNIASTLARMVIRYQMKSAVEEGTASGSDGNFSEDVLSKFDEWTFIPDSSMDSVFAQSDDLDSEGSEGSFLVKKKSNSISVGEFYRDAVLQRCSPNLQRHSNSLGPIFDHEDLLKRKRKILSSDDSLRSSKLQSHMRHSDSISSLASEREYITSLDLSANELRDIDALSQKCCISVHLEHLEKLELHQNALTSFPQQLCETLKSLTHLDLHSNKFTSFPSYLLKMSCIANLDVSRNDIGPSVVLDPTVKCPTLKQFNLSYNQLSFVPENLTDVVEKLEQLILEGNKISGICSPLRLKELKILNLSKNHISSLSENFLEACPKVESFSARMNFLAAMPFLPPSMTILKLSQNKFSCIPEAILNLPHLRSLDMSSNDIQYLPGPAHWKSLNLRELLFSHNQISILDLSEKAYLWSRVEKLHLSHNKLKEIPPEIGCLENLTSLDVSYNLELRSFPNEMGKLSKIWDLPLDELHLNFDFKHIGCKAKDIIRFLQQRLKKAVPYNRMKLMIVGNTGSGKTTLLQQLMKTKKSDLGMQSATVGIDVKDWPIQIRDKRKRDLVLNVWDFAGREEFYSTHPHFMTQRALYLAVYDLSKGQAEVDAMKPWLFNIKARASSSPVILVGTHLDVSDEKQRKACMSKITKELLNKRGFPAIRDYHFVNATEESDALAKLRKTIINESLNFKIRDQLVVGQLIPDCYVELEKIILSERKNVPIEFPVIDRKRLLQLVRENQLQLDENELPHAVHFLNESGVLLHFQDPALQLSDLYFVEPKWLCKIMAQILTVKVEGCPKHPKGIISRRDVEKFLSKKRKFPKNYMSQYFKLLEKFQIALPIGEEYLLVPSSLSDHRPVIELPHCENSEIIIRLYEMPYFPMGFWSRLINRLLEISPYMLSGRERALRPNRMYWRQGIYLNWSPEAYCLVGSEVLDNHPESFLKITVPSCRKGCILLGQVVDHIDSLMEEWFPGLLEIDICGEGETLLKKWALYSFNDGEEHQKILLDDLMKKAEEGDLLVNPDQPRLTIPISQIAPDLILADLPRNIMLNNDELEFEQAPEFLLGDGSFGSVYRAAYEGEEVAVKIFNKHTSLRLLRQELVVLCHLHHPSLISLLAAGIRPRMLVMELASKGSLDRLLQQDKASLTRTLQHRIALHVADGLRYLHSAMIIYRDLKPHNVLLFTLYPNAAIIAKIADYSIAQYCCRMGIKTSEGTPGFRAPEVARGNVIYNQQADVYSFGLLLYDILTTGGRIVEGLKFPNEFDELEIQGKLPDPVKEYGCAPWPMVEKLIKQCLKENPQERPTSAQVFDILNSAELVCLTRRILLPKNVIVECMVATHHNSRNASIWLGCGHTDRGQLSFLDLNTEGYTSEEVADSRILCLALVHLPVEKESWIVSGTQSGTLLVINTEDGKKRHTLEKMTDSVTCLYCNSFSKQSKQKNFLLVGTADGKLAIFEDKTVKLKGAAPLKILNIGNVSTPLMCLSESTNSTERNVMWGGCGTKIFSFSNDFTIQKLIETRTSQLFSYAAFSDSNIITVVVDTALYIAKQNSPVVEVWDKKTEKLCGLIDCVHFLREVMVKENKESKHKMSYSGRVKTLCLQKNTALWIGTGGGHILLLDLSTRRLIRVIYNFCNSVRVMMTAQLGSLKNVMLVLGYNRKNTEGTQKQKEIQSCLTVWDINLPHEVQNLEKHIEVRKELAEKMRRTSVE
The next assay addresses T3, TTK (Homo sapiens, UniProt P33981).
T3 sequence (P33981 1-857): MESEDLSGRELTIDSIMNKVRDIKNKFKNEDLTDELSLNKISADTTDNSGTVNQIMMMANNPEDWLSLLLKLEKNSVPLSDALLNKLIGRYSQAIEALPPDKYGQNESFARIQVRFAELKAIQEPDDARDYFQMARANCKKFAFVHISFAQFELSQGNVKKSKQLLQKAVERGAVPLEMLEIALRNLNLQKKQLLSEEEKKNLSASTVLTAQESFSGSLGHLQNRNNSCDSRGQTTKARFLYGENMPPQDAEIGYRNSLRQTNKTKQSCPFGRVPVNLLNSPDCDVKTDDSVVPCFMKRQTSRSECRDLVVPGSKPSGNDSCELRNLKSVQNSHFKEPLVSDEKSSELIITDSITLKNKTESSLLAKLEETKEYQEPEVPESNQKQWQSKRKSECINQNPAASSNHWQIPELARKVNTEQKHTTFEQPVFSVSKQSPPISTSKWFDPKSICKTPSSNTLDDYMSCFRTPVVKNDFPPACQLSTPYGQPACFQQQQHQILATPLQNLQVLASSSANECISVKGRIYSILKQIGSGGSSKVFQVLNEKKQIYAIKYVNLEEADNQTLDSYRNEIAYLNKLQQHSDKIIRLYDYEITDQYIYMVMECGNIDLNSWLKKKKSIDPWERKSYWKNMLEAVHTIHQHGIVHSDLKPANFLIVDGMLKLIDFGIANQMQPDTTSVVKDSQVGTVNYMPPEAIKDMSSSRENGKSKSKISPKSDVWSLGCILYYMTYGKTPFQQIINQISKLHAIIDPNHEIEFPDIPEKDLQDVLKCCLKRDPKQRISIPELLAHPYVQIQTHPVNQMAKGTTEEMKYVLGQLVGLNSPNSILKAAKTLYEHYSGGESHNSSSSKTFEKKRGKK
Briefly: TTK enzyme inhibition, ADP-Glo kinase assay. On the set-up: purchased SignalChem T20-10G. The format is biochemical. Particulars: ATP 5 μM. On the procedure:
To evaluate an inhibitory activity of the compound according to the present invention against LRRK2, LRRK2 (G2019S), DYRK1, CLK1, and TTK kinases, experiments were performed as follows.
Each of the Example compounds was reacted with a purified human TTK (SignalChem #T20-10G) enzyme to evaluate an ability to inhibit an enzyme using a method as described below. A composition of 40 mM Tris-HCl (pH 7.4), 20 mM MgCl2, 0.1 mg/mL BSA (a 5× kinase buffer, SignalChem #K03-09), and 50 μM DTT (SignalChem #D86-09B) was used as a reaction buffer, and all reactions of test substances were performed in the reaction buffer. Each of the compounds was diluted […] from a 10 mM DMSO stock using a serial dilution method, and enzyme activities were measured at final compound concentrations of 1, 0.333333, 0.111111, 0.037037, 0.012346, 0.004115, 0.001372, 0.000457, 0.000152, 0.000051, and 0.000017 μM. In the test, purified ATP (5 μM, Promega #V6930) and an MBP enzyme substrate (0.2 μg, SignalChem M42-51N) were reacted with a human TTK (7.5 ng) enzyme at 25° C. for 4 hours, and the enzyme activities were then determined using an in vitro ADP-Glo™ kinase assay (Promega #V6930). An enzyme-activity reaction solution, an ADP-Glo reaction solution, and an enzyme-ability detection solution were reacted at a ratio of 2:2:1 to measure a degree of inhibition of the enzyme activity with luminescence. The degree of inhibition of the enzyme activity according to the treatment concentration of each of the compounds was calculated based on the fluorescence of the enzyme activity of the solvent control which was not treated with the compound. In this case, the concentration of each of the compounds inhibiting 50% of the enzyme activity was determined to be an IC50 (nM) value, and calculated using Prism (Version 8.2 GraphPad) software.
(In ADP-Glo the light output rises with the ADP produced.)

The next assay relates to human DYRK1A and tau. Briefly: Inhibition of tau phosphorylation, ClariCELL Kinase Cell-Based Assay, HEK 293 cells expressing human DYRK1A and tau. Particulars: for inhibition at 1 µM: HEK293, read-out: % inhibition at 1 uM, tau phosphorylation, compound 1 uM; for inhibition at 0.25 µM / inhibition at 0.5 µM: HEK293, tau phosphorylation; for inhibition at 0.25 µM: compound 0.25 uM; for inhibition at 0.5 µM: compound 0.5 uM. Summed up: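 Cell-based service assay: HEK 293 cells transiently expressing human DYRK1A and tau were treated with compound and lysed. Released tau was plate-captured and its phosphorylation quantified by ELISA with a phospho-tau-specific antibody.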

The next assay has as its system IL-6. Briefly: Inhibition of LPS-induced IL-6 secretion of THP-1 monocytes (ELISA). Type of assay: cell-based, human. To be noted: Homo sapiens, THP-1; compound 0.5 μM, LPS 500 ng/mL, 24 hours; read-out: THP1/IL6 (% inhib). Summed up: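 THP-1 monocytes grown 16 h at 37 °C, pretreated 1 h with compound at final 0.5 μM, then stimulated with LPS at final 500 ng/mL for 24 h. IL-6 and TNF-α in culture supernatant measured by ELISA (OD 450 nm).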
Background: An ELISA detects its analyte on a solid surface through an enzyme-linked reagent.

T1 sequence (P49759 whole entry): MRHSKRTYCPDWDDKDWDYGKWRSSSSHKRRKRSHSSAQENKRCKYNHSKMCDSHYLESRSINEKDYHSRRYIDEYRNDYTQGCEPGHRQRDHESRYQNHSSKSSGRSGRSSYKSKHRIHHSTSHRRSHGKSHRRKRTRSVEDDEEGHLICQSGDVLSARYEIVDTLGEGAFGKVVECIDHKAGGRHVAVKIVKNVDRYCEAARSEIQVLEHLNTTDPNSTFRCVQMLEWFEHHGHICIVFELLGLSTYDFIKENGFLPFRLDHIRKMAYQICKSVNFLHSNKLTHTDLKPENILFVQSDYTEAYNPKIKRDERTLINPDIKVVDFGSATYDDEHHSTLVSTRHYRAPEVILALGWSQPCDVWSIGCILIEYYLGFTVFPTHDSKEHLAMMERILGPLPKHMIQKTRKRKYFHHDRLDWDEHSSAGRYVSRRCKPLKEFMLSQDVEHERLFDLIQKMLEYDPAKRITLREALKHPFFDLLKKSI
LRRK2, sequence (Q5S007 whole entry): as the sequence (Q5S007 whole entry G2019S) above, with S2019G counted along it

Consider `C=CCNc1nc(Nc2ccc(S(=O)(=O)N3CCC(N4CCOCC4)CC3)cc2OC)nc2[nH]cc(C(F)(F)F)c12` [Example 469, N^4-allyl-N2-(2-methoxy-4-((4-morpholino-piperidin-1-yl)sulfonyl)phenyl)-5-(trifluoromethyl)-7H-pyrrolo[2,3-d]pyrimidine-2,4-diamine], for which the IC50 on LRRK2, on CLK1, against LRRK2 (G2019S) [1] and at DYRK1 was less than 100 nM each time. The GI50 with MDA-MB-468 cell line and in the assay on MDA-MB-231 cell line was 101 to 300 nM throughout.
In the case of `O=C(c1ccc(Nc2nc(C3CC3)c3c(C(F)(F)F)c[nH]c3n2)c2c1OCCO2)N1CCOCC1` [Example 227, (8-((4-cyclopropyl-5-(trifluoromethyl)-7H-pyrrolo[2,3-d]pyrimidin-2-yl)amino)-2,3-dihydrobenzo[b][1,4]dioxin-5-yl)(morpholino)methanone], the IC50 (commonly the concentration at which inhibition is half-maximal) at LRRK2 was less than 100 nM; on CLK1, less than 100 nM; at LRRK2 (G2019S) [2], less than 100 nM; against TTK it was 101 to 300 nM; on DYRK1, less than 100 nM. For the same compound, in the assay on MDA-MB-468 cell line, the GI50 (commonly the concentration giving 50% growth inhibition) lay within 301 to 1000 nM. Further, the inhibition at 1 µM in the assay with human DYRK1A and tau was determined as 32.7%. For the same compound, in the assay on human DYRK1A and tau, the inhibition at 0.25 µM turned out to be 7.4%. The inhibition at 0.5 µM in the assay with human DYRK1A and tau turned out to be 22.8%.
For `O=C(c1ccc(Nc2nc(C3CC3)c3c(C(F)(F)F)c[nH]c3n2)c2c1CCO2)N1CC[C@H](N2CCOCC2)C1` [Example 472], the IC50 at LRRK2, at CLK1, on TTK and on DYRK1 was less than 100 nM each time. Also, the GI50 in the assay with MDA-MB-468 cell line lay within 301 to 1000 nM. The inhibition at 0.5 µM with IL-6 is 31.5%; in the assay on human DYRK1A and tau, 36.5%. The inhibition at 1 µM in the assay with human DYRK1A and tau was determined as 56.5%. The inhibition at 0.25 µM in the assay on human DYRK1A and tau was 23.6%.
In the case of `COc1cc(S(=O)(=O)N2CCOCC2)ccc1Nc1nc(C2CC2)c2c(C(F)(F)F)c[nH]c2n1` [Example 225, 4-cyclopropyl-N-(2-methoxy-4-(morpholinosulfonyl)phenyl)-5-(trifluoromethyl)-7H-pyrrolo[2,3-d]pyrimidin-2-amine], the IC50 on LRRK2, on CLK1, on LRRK2 (G2019S) [2], against TTK and on DYRK1 was less than 100 nM throughout. Besides, the GI50 in the assay on MDA-MB-468 cell line and in the assay on MDA-MB-231 cell line was 301 to 1000 nM in each case. In the assay on human DYRK1A and tau, the inhibition at 1 µM is 29.9%. Besides, in the assay on human DYRK1A and tau, the inhibition at 0.25 µM turned out to be 1%. Besides, in the assay on human DYRK1A and tau, the inhibition at 0.5 µM was -2.5%.

These data come from patent US20230066011A1, “PYRROLOPYRIMIDINE DERIVATIVE, AND PHARMACEUTICAL COMPOSITION FOR PREVENTING OR TREATING PROTEIN KINASE-RELATED DISEASE COMPRISING SAME AS ACTIVE INGREDIENT” (VORONOI CO., LTD., priority 2019, published 2023).
